The test system of assay [1] is Onchocerca gutturosa adult male worms. As to the kind of experiment: Onchocerca gutturosa in vitro screening model: adult worm motility score and MTT/formazan viability. It counts as cell-based. To be noted: read-out: O. gutt Activity class.
In the next assay the test system is Dirofilaria immitis. As to the kind of experiment: Heartworm screen Dirofilaria immitis (stage DiMF/DiL4 not specified in the tables). To be noted: read-out: D. immitis Activity class. It counts as cell-based.

A value given as a limit tells only on which side of the number the result lay.

41 compounds from patent US20240148744A1 (Celgene Corporation, priority 2021, published 2024) can be followed below.

On to `CCn1ccnc1S(=O)(=O)Nc1cccc2cc(C)cnc12` [Compound 105, 1-ethyl-N-(3-methylquin-olin-8-yl)-1H-imidazole-2-sulfonamide], for which the IC50 in assay [1] was below 200 nM; in the assay with Dirofilaria immitis, 500 to 5000 nM.
The corresponding values for `O=S(=O)(Nc1cccc2cccnc12)c1nccn1C1(C(F)(F)F)CC1` [Compound 168, N-(quinolin-8-yl)-1-(1-(trifluoromethyl)cyclopropyl)-1H-imidazole-2-sulfonamide] are below 200 nM and 200 to 500 nM.
In the same order, the values of `CC(C)Oc1ccc(S(=O)(=O)Nc2cccc3cccnc23)nc1` [Compound 242, 5-isopropoxy-N-(quinolin-8-yl)pyridine-2-sulfonamide] are below 200 nM and 200 to 500 nM.
Take `CN(C)c1cccnc1S(=O)(=O)Nc1cccc2c1N(C1CC1)CCC2` [Compound 42, N-(1-cyclo-propyl-1,2,3,4-tetra-hydroquin-olin-8-yl)-3-(dimethyl-amino)pyr-idine-2-sulfonamide]: the IC50 (in assay [1]; in the assay with Dirofilaria immitis) was 500 to 5000 nM each time.
With `N#Cc1ccc(-c2cccc(S(=O)(=O)Nc3cccc4cccnc34)n2)cc1` [Compound 178, 6-(4-cyanophenyl)-N-(quinolin-8-yl)pyridine-2-sulfonamide], the IC50 is below 200 nM in assay [1] and 500 to 5000 nM in the assay on Dirofilaria immitis.
The corresponding values for `CCn1ccnc1S(=O)(=O)Nc1cccc2c(OC)ccnc12` [Compound 122, 1-ethyl-N-(4-methoxyquin-olin-8-yl)-1H-imidazole-2-sulfonamide] are below 200 nM and 500 to 5000 nM.
In the same order, the values of `CN(C)c1cccnc1S(=O)(=O)Nc1c(Cl)ccc2cccnc12` [Compound 99, N-(7-chloro-quinolin-8-yl)-3-(dimethyl-amino)pyridine-2-sulfonamide] are 500 to 5000 nM and 500 to 5000 nM.
In the same order, the values of `Cc1cc(C#N)cc(S(=O)(=O)Nc2cccc3cccnc23)n1` [Compound 167, 4-cyano-6-methyl-N-(quinolin-8-yl)pyridine-2-sulfonamide] are 200 to 500 nM and 500 to 5000 nM.
Consider `O=S(=O)(Nc1cccc2cccnc12)c1ccnc(C(F)(F)F)c1` [Compound 158, N-(quinolin-8-yl)-2-(trifluoromethyl) pyridine-4-sulfonamide], for which the results for the IC50 (in assay [1]; with Dirofilaria immitis) were 200 to 500 nM and 500 to 5000 nM, respectively.
Take `Cc1ccc(S(=O)(=O)Nc2cccc3c(Cl)ccnc23)nc1` [Compound 119, N-(4-chloro-quinolin-8-yl)-5-methylpyr-idine-2-sulfon-amide]: the IC50 in assay [1] was below 200 nM; in the assay on Dirofilaria immitis, 500 to 5000 nM.
For `CN(C)c1nccnc1S(=O)(=O)Nc1c(Cl)ccc2cccnc12` [Compound 76, N-(7-chloro-quinolin-8-yl)-3-(dimethyl-amino)pyr-azine-2-sulfonamide], the IC50 (in assay [1]; in the assay on Dirofilaria immitis) was 500 to 5000 nM throughout.
Consider `Cc1cccnc1S(=O)(=O)Nc1cccc2c(OCC3CC3)ccnc12` [Compound 28, N-(4-(cyclo-propylmeth-oxy)quinolin-8-yl)-3-meth-ylpyridine-2-sulfonamide], for which the IC50 (in assay [1]; in the assay with Dirofilaria immitis) was 500 to 5000 nM throughout.
As to `Cc1ccc(S(=O)(=O)Nc2cccc3cc(F)cnc23)nc1` [Compound 87, N-(3-fluoro-quinolin-8-yl)-5-methyl-pyridine-2-sulfonamide], the IC50 in assay [1] is below 200 nM; in the assay with Dirofilaria immitis, 200 to 500 nM.
On to `Cc1cccnc1S(=O)(=O)Nc1cccc2cccnc12` [Compound 213, 3-methyl-N-(quinolin-8-yl)pyridine-2-sulfonamide], for which the figures for the IC50 (in assay [1]; with Dirofilaria immitis) were below 200 nM and 500 to 5000 nM, respectively.
Turning to `Cc1cccnc1S(=O)(=O)Nc1c(C2CC2)ccc2cccnc12` [Compound 17, N-(7-cyclo-propylquin-olin-8-yl)-3-methylpyr-idine-2-sulfonamide], the IC50 (in assay [1]; with Dirofilaria immitis) was 200 to 500 nM in each case.
As for `N#Cc1nc(Cl)ccc1S(=O)(=O)Nc1cccc2cccnc12` [Compound 169, 6-chloro-2-cyano-N-(quinolin-8-yl)pyridine-3-sulfonamide], the IC50 (in assay [1]; with Dirofilaria immitis) was 500 to 5000 nM each time.
Turning to `CCn1ccnc1S(=O)(=O)Nc1cc(OC)cc2cccnc12` [Compound 117, 1-ethyl-N-(6-methoxyquin-olin-8-yl)-1H-imidazole-2-sulfonamide], the IC50 lay in the range of 500 to 5000 nM in assay [1] and 200 to 500 nM in the assay on Dirofilaria immitis.
As to `Cc1ccc(S(=O)(=O)Nc2cccc3cccnc23)nc1` [Compound 248, 5-methyl-N-(quinolin-8-yl)pyridine-2-sulfonamide], the values for the IC50 (in assay [1]; in the assay on Dirofilaria immitis) were 500 to 5000 nM and 200 to 500 nM, respectively.
The corresponding values for `Cc1ncccc1S(=O)(=O)Nc1cccc2cccnc12` [Compound 155, 2-methyl-N-(quinolin-8-yl)pyridine-3-sulfonamide] are 500 to 5000 nM and 500 to 5000 nM.
For `Cc1cc(S(=O)(=O)Nc2cccc3cccnc23)cc(C)n1` [Compound 186, 2,6-dimethyl-N-(quinolin-8-yl)pyridine-4-sulfonamide], the IC50 in assay [1] lay in the range of 200 to 500 nM; with Dirofilaria immitis it was 500 to 5000 nM.
The corresponding values for `Cc1cn(C)c(S(=O)(=O)Nc2cccc3cccnc23)n1` [Compound 231, 1,4-dimethyl-N-(quinolin-8-yl)-1H-imidazole-2-sulfonamide] are 500 to 5000 nM and below 200 nM.
The corresponding values for `CCn1ccnc1S(=O)(=O)Nc1cccc2cc(OC)cnc12` [Compound 86, 1-ethyl-N-(3-methoxyquin-olin-8-yl)-1H-imidazole-2-sulfonamide] are below 200 nM and 200 to 500 nM.
As to `CN(C)C(=O)c1cccnc1S(=O)(=O)Nc1cccc2cccnc12` [Compound 207, N,N-dimethyl-2-(N-quinolin-8-ylsulfamoyl) nicotinamide], the IC50 (in assay [1]; in the assay on Dirofilaria immitis) was 500 to 5000 nM in each case.
With `O=S(=O)(Nc1cccc2cccnc12)c1ccc(C(F)F)nc1` [Compound 153, 6-(difluoromethyl)-N-(quinolin-8-yl)pyridine-3-sulfonamide], the IC50 (in assay [1]; in the assay on Dirofilaria immitis) was 500 to 5000 nM each time.
`CCn1ccnc1S(=O)(=O)Nc1c(C)ccc2cccnc12` [Compound 102, 1-ethyl-N-(7-methylquin-olin-8-yl)-1H-imidazole-2-sulfonamide]: the IC50 in assay [1] is below 200 nM; in the assay on Dirofilaria immitis it was 200 to 500 nM.
The corresponding values for `O=S(=O)(Nc1ccc(F)c2cccnc12)c1ncccc1C1CC1` [Compound 48, 3-cyclo-propyl-N-(5-fluoroquin-olin-8-yl)-pyridine-2-sulfonamide] are below 200 nM and 500 to 5000 nM.
The corresponding values for `Cc1ccc(S(=O)(=O)Nc2cccc3cccnc23)c(C)n1` [Compound 187, 2,6-dimethyl-N-(quinolin-8-yl)pyridine-3-sulfonamide] are 500 to 5000 nM and 500 to 5000 nM.
In the same order, the values of `Cc1cccnc1S(=O)(=O)Nc1c(N2CCOCC2)ccc2cccnc12` [Compound 18, 3-methyl-N-(7-morpho-linoquinolin-8-yl)pyridine-2-sulfonamide] are 200 to 500 nM and 200 to 500 nM.
On to `CC(C)n1nccc1S(=O)(=O)Nc1c(Cl)ccc2cccnc12` [Compound 77, N-(7-chloro-quinolin-8-yl)-1-iso-propyl-1H-pyrazole-5-sulfonamide], for which the IC50 in assay [1] was in the range of 200 to 500 nM; in the assay with Dirofilaria immitis, 500 to 5000 nM.
Take `Cc1ccc(S(=O)(=O)Nc2cccc3cc(C)cnc23)nc1` [Compound 113, 5-methyl-N-(3-methyl-quinolin-8-yl)-pyridine-2-sulfonamide]: the IC50 is below 200 nM in assay [1] and 200 to 500 nM in the assay on Dirofilaria immitis.
In the same order, the values of `Cc1cccnc1S(=O)(=O)Nc1cccc2c(C(F)(F)F)ccnc12` [Compound 13, 3-methyl-N-(4-(trifluoro-methyl)quin-olin-8-yl)pyr-idine-2-sulfonamide] are below 200 nM and 200 to 500 nM.
The corresponding values for `COc1ccnc2c(NS(=O)(=O)c3ncccc3C)cccc12` [Compound 14, N-(4-meth-oxyquinolin-8-yl)-3-meth-ylpyridine-2-sulfonamide] are 500 to 5000 nM and 500 to 5000 nM.
The corresponding values for `CC(C)n1nccc1S(=O)(=O)Nc1cccc2cccnc12` [Compound 206, 1-isopropyl-N-(quinolin-8-yl)-1H-pyrazole-5-sulfonamide] are 200 to 500 nM and 500 to 5000 nM.
For `Cc1cccnc1S(=O)(=O)Nc1cccc2c(-c3ccccc3)ccnc12` [Compound 30, 3-methyl-N-(4-phenyl-quinolin-8-yl)pyridine-2-sulfonamide], the IC50 (in assay [1]; in the assay with Dirofilaria immitis) was 500 to 5000 nM each time.
Regarding `O=S(=O)(Nc1c(Cl)ccc2cccnc12)c1ncccc1Cl` [Compound 73, 3-chloro-N-(7-chloro-quinolin-8-yl)pyridine-2-sulfonamide], the IC50 is below 200 nM in assay [1] and 500 to 5000 nM in the assay on Dirofilaria immitis.
On to `Cc1ccc(S(=O)(=O)Nc2cccc3cccnc23)o1` [Compound 276, 5-methyl-N-(quinolin-8-yl)furan-2-sulfonamide], for which the IC50 (in assay [1]; in the assay with Dirofilaria immitis) was 200 to 500 nM each time.
In the case of `O=S(=O)(Nc1cccc2cccnc12)c1nccn1C1CC1(F)F` (stereo not shown) [Compound 174, 1-(2,2-difluorocyclo-propyl)-N-(quinolin-8-yl)-1H-imidazole-2-sulfonamide], the IC50 in assay [1] is below 200 nM; with Dirofilaria immitis it was 200 to 500 nM.
Consider `O=S(=O)(Nc1cccc2cccnc12)c1cc(Cl)ccn1` [Compound 220, 4-chloro-N-(quinolin-8-yl)pyridine-2-sulfonamide], for which the IC50 (in assay [1]; in the assay on Dirofilaria immitis) was below 200 nM each time.
In the case of `Cc1ccc(S(=O)(=O)Nc2ccc(Cl)c3cccnc23)nc1` [Compound 118, N-(5-chloro-quinolin-8-yl)-5-methylpyr-idine-2-sulfon-amide], the IC50 in assay [1] was below 200 nM; in the assay with Dirofilaria immitis it was 500 to 5000 nM.
As for `Cc1ccc(S(=O)(=O)Nc2cccc3cccnc23)cn1` [Compound 157, 6-methyl-N-(quinolin-8-yl)pyridine-3-sulfonamide], the IC50 (in assay [1]; in the assay with Dirofilaria immitis) was 500 to 5000 nM in each case.
With `CCn1ccnc1S(=O)(=O)Nc1cccc2ccc(C)nc12` [Compound 106, 1-ethyl-N-(2-methylquin-olin-8-yl)-1H-imidazole-2-sulfonamide], the IC50 lay within 500 to 5000 nM in assay [1] and 200 to 500 nM in the assay with Dirofilaria immitis.
